These results are taken from US6664256B1, “Phenylpyridazine compounds and medicines containing the same” (Kowa Co., Ltd., priority 2000, dated 2003).

Structures are written as SMILES.

Tested on in one series: not given
Test: not given
Conditions: not given
For orientation: melting point means the temperature of the solid-liquid transition. For `COc1ccc(-c2nnc(Oc3ccc(F)cc3F)cc2-c2ccccc2)cc1` [Example 26, 6-(2,4-difluorophenoxy)-3-(4-methoxyphenyl)-4-phenylpyridazine], the melting point is 169 to 169.9 °C. In turn, `COc1ccc(-c2nnc(Oc3cccc(F)c3F)cc2-c2ccccc2)cc1` [Example 25, 6-(2,3-difluorophenoxy)-3-(4-methoxyphenyl)-4-phenylpyridazine] yielded a melting point of 155.2 to 156.6 °C.

In turn, `CSc1ccc(-c2nnc(Oc3ccc(F)cc3F)cc2-c2ccc(Cl)cc2)cc1` [Example 33, 4-(4-chlorophenyl)-6-(2,4-difluorophenoxy)-3-[4-(methylthio)phenyl]pyridazine] yielded a melting point of 163.2 to 164 °C.

Consider `Cc1cc(-c2ccc(Cl)cc2)c(-c2ccc(S(C)(=O)=O)cc2)nn1` [Example 50, 4-(4-chlorophenyl)-6-methyl-3-[4-(methylsulfonyl)phenyl]pyridazine], for which the melting point lay within 205 to 209 °C. In turn, `CSc1ccc(-c2nnc(Cl)cc2-c2ccc(Cl)cc2)cc1` [Example 31, 6-chloro-4-(4-chlorophenyl)-3-[4-(methylthio)phenyl]pyridazine] came in with a melting point of 145 to 145.8 °C. Consider `CS(=O)(=O)c1ccc(-c2nnc(Oc3ccc(F)cc3F)cc2-c2ccc(Cl)cc2)cc1` [Example 34, 4-(4-chlorophenyl)-6-(2,4-difluorophenoxy)-3-[4-(methylsulfonyl)phenyl]pyridazine], for which the melting point lay within 115.2 to 117.3 °C. Regarding `CSc1ccc(-c2nnc(Oc3ccc(F)cc3F)cc2-c2ccc(F)cc2)cc1` [Example 29, 6-(2,4-difluorophenoxy)-4-(4-fluorophenyl)-3-[4-(methylthio)phenyl]pyridazine], the melting point lay in the range of 140.6 to 143.4 °C.

`COc1ccc(-c2cc(NCc3ccccc3)nnc2-c2ccc(OC)cc2)cc1` [Example 41, 6-benzylamino-3,4-bis(4-methoxyphenyl)pyridazine] displayed a melting point of 125.4 to 126.3 °C.

The compound `CSc1ccc(-c2nnc(Cl)cc2-c2ccccc2)cc1` [Example 59, 6-chloro-3-[4-(methylthio)phenyl]-4-phenylpyridazine] yielded a melting point of 157.7 to 158.3 °C. `CSc1ccc(-c2nnc(SC)cc2-c2ccc(F)cc2)cc1` [Example 46, 4-(4-fluorophenyl)-6-methylthio-3-[4-(methylthio)phenyl]pyridazine] yielded a melting point of 165.8 to 169.5 °C. On to `CSc1ccc(-c2nnc(Cl)cc2-c2ccc(F)cc2)cc1` [Example 28, 6-chloro-4-(4-fluorophenyl)-3-[4-(methylthio)phenyl]pyridazine], for which the melting point is 130.9 to 131.4 °C. Still for that read-out and setting: then `CSc1ccc(-c2nnc(Sc3ccccc3)cc2-c2ccc(Sc3ccccc3)cc2)cc1` [Example 32, 3-[4-(methylthio)phenyl]-6-phenylthio-4-[4-(phenylthio)phenyl]pyridazine], with 53.3 to 56.2 °C. In the case of `CS(=O)(=O)c1ccc(-c2nnc(Cl)cc2-c2ccc(Cl)cc2)cc1` [Example 60, 6-chloro-4-(4-chlorophenyl)-3-[4-(methylsulfonyl)phenyl]pyridazine], the melting point is 189.6 to 190.5 °C.

In another series the test system is interleukin-1β production. Put plainly: Inhibitory activity against interleukin-1β production (LPS-stimulated HL-60 cells, ELISA). The format is cell-based. Particulars: Homo sapiens, 72 h, lipopolysaccharide 10 μg/ml, culturing for 3 days, interleukin-1β determined by ELISA, read-out: IL-β (IC50 μM). The protocol: Experiment 1 (Inhibitory Activity against Interleukin-1β Production)
Inhibitory activity of the compounds of the present invention, which are represented by the formula (I), against interleukin-1β production was tested by the following experiment:
HL-60 cells were cultured for 4 days until confluence on RPMI 1640 medium with 10% fetal bovine serum (FBS) added thereto. The medium was centrifuged. The supernatant was discarded, and the cells were then suspended at 1×10^6 cells/ml on RPMI 1640 medium with 3% FBS, and lipopolysaccharide was added to give a final concentration of 10 μg/ml . The culture was inoculated at 1 ml/well to a 24-well plate. A test compound was added at 1 μl/well, followed by culturing for 3 days. Three days later, the amount of interleukin-1β in each culture was determined by ELISA. Each IC50 value was determined by a comparison in yield with a control to which no test compound was added.
Background: In an ELISA, binding on a coated surface is turned into a signal by an enzyme label.
The IC50 is the concentration that inhibits the measured activity by half. For the compound `COc1ccc(-c2cc(Oc3ccc(F)c(F)c3)nnc2-c2ccc(OC)cc2)cc1` [Example 9, 3,4-bis(4-methoxyphenyl)-6-(3,4-difluorophenoxy)pyridazine], the IC50 was 0.46 µM. For the compound `COc1ccc(-c2cc(Oc3ccccc3)nnc2-c2ccc(OC)cc2)cc1` [Example 3, 3,4-bis(4-methoxyphenyl)-6-(phenoxy)pyridazine], the IC50 turned out to be 0.1 µM. As for `COc1ccc(-c2nnc(Oc3ccc(F)cc3F)cc2-c2ccccc2)cc1` [Example 26, 6-(2,4-difluorophenoxy)-3-(4-methoxyphenyl)-4-phenylpyridazine], the IC50 was 0.31 µM. For the compound `COc1ccc(-c2cc(C#N)nnc2-c2ccc(OC)cc2)cc1` [Example 51, 3,4-bis-(4-methoxyphenyl)-6-cyanopyridazine], the IC50 came out at 0.09 µM. Regarding `COc1ccc(-c2cc(Cl)nnc2-c2ccc(OC)cc2)cc1` [Comp. Comp'd 1, reference compound], the IC50 worked out at 32.1 µM. Consider `COc1ccc(-c2nnc(Oc3cccc(F)c3F)cc2-c2ccccc2)cc1` [Example 25, 6-(2,3-difluorophenoxy)-3-(4-methoxyphenyl)-4-phenylpyridazine], for which the IC50 amounted to 0.32 µM. Consider `COc1ccc(-c2nnc(Oc3ccc(F)cc3F)cc2-c2ccncc2)cc1` [Example 23, 6-(2,4-difluorophenoxy)-3-(4-methoxyphenyl)-4-(4-pyridyl)pyridazine], for which the IC50 was 0.96 µM. With `CSc1ccc(-c2nnc(Oc3ccc(F)cc3F)cc2-c2ccc(Cl)cc2)cc1` [Example 33, 4-(4-chlorophenyl)-6-(2,4-difluorophenoxy)-3-[4-(methylthio)phenyl]pyridazine], the 50% inhibitory concentration (IC50) was determined as 0.26 µM. For the compound `COc1ccc(Oc2cc(-c3ccc(OC)cc3)c(-c3ccc(OC)cc3)nn2)cc1` [Example 15, 3,4-bis(4-methoxyphenyl)-6-(4-methoxyphenoxy)pyridazine], the IC50 came out at 0.45 µM. Turning to `COc1ccc(-c2cc(Oc3ccc([N+](=O)[O-])cc3)nnc2-c2ccc(OC)cc2)cc1` [Example 17, 3,4-bis(4-methoxyphenyl)-6-(4-nitrophenoxy)pyridazine], the half-maximal inhibitory concentration (IC50) was determined as 0.63 µM. For `COc1ccc(-c2cc(Oc3cccc(F)c3F)nnc2-c2ccc(OC)cc2)cc1` [Example 5, 3,4-bis(4-methoxyphenyl)-6-(2,3-difluorophenoxy)pyridazine], the IC50 is 0.12 µM. Still for that read-out and setting: then `COc1ccc(-c2nnc(C#N)cc2-c2ccccc2)cc1` [Example 66, 6-cyano-3-(4-methoxyphenyl)-4-phenylpyridazine], with 0.68 µM. On to `COc1ccc(-c2cc(Oc3ccccc3C#N)nnc2-c2ccc(OC)cc2)cc1` [Example 18, 3,4-bis(4-methoxyphenyl)-6-(2-cyanophenoxy)pyridazine], for which the IC50 came to 0.15 µM. Take `COc1ccc(-c2cc(Oc3cccc(C#N)c3)nnc2-c2ccc(OC)cc2)cc1` [Example 19, 3,4-bis(4-methoxyphenyl)-6-(3-cyanophenoxy)pyridazine]: the IC50 turned out to be 0.16 µM. As to `COc1ccc(-c2cc(Oc3c(F)cccc3F)nnc2-c2ccc(OC)cc2)cc1` [Example 8, 3,4-bis(4-methoxyphenyl)-6-(2,6-difluorophenoxy)pyridazine], the IC50 was determined as 0.35 µM. On to `COc1ccc(-c2cc(Sc3cc(Cl)c(Cl)c(Cl)c3)nnc2-c2ccc(OC)cc2)cc1` [Example 14, 3,4-bis(4-methoxyphenyl)-6-(3,4,5-trichlorophenylthio)pyridazine], for which the IC50 came to 0.2 µM. As for `COc1ccc(-c2cc(Oc3c(F)c(F)cc(F)c3F)nnc2-c2ccc(OC)cc2)cc1` [Example 11, 3,4-bis(4-methoxyphenyl)-6-(2,3,5,6-tetrafluorophenoxy)pyridazine], the IC50 is 0.19 µM. For the compound `CSc1ccc(-c2nnc(Sc3ccccc3)cc2-c2ccc(Sc3ccccc3)cc2)cc1` [Example 32, 3-[4-(methylthio)phenyl]-6-phenylthio-4-[4-(phenylthio)phenyl]pyridazine], the IC50 was found to be 0.94 µM. `COc1ccc(-c2cc(Oc3cc(F)ccc3F)nnc2-c2ccc(OC)cc2)cc1` [Example 7, 3,4-bis(4-methoxyphenyl)-6-(2,5-difluorophenoxy)pyridazine]: the IC50 was determined as 0.18 µM. As for `COc1ccc(-c2cc(Oc3c(F)c(F)c(F)c(F)c3F)nnc2-c2ccc(OC)cc2)cc1` [Example 12, 3,4-bis(4-methoxyphenyl)-6(2,3,4,5,6-pentafluorophenoxy)pyridazine], the IC50 amounted to 0.04 µM. For `CCOC(=O)c1c(Cl)nnc(-c2ccc(OC)cc2)c1-c1ccc(OC)cc1` [Comp. Comp'd 2, reference compound], the IC50 was 4.16 µM. As to `COc1ccc(-c2nnc(Oc3c(F)c(F)c(F)c(F)c3F)cc2-c2ccccc2)cc1` [Example 27, 3-(4-methoxyphenyl)-6-(2,3,4,5,6-pentafluorophenoxy)-4-phenylpyridazine], the IC50 was 0.01 µM.
